Key:
Type in all cases: cell-based, human
Details in all cases: PTX 100 ng·mL^−1, 24 h
[1] = system: LPA-evoked Ca^2+ signals in hBASMCs; experiment: LPA-evoked Ca2+ signals in populations of fluo-4-loaded hBASMCs
Procedure: Two methods were used to measure [Ca^2+]i in populations of hBASMCs. For measurements using a FlexStation III plate-reader (Molecular Devices, Sunnyvale, CA, USA), hBASMCs were seeded into 96-well plates (10^4 cells per well). After about 4 days, when the cells were confluent, the medium was replaced with SMGM-2 without serum or growth factor supplements, and the cells were used after a further 24 h. […] Cells were washed with HEPES-buffered saline (HBS: 135 mM NaCl, 5.9 mM KCl, 1.2 mM MgCl2, 1.5 mM CaCl2, 11.6 mM HEPES, 11.5 mM D-glucose, pH 7.3), and loaded with fluo-4 by incubation with fluo-4-AM (2 μM) in HBS (100 μL per well) containing pluronic F127 (0.02%, v/v) and probenecid (2.5 mM). […] Fluorescence from fluo-4 (excitation 485 nm, emission 525 nm) was recorded at 1.44-s intervals using Softmax Pro 5.4 (Molecular Devices). Fluorescence was calibrated to [Ca^2+]i from: [Ca^2+]i=KDCa×(F−Fmin/Fmax−F) where, KDCa is the equilibrium dissociation constant of fluo-4 for Ca^2+ (345 nM), F is the recorded fluorescence, and Fmin and Fmax are the fluorescence values recorded after addition of triton-X-100 (0.1%, v/v) with either BAPTA (10 mM, Fmin) or CaCl2 (10 mM, Fmax). […] Fmax was determined for each well at the end of an experiment, and the average value was used for each column of 8 wells. Fmin was determined from parallel wells on each plate. […]

[2] = system: carbachol-evoked Ca^2+ signals in hBASMCs; experiment: Carbachol-evoked Ca2+ signals in populations of fluo-4-loaded hBASMCs
Procedure: (§1) Two methods were used to measure [Ca^2+]i in populations of hBASMCs. For measurements using a FlexStation III plate-reader (Molecular Devices, Sunnyvale, CA, USA), hBASMCs were seeded into 96-well plates (10^4 cells per well). After about 4 days, when the cells were confluent, the medium was replaced with SMGM-2 without serum or growth factor supplements, and the cells were used after a further 24 h. […] Cells were washed with HEPES-buffered saline (HBS: 135 mM NaCl, 5.9 mM KCl, 1.2 mM MgCl2, 1.5 mM CaCl2, 11.6 mM HEPES, 11.5 mM D-glucose, pH 7.3), and loaded with fluo-4 by incubation with fluo-4-AM (2 μM) in HBS (100 μL per well) containing pluronic F127 (0.02%, v/v) and probenecid (2.5 mM). After 1 h at 20 °C, the medium was replaced with HBS (100 μL per well) containing probenecid (2.5 mM). After a further incubation at 20 °C for 1 h, the medium was replaced with HBS (60–80 μL per well) or nominally Ca^2+-free HBS, and the cells were used immediately for experiments at 20 °C. […] Drug additions (20 μL at 4 or 5 times the final concentration) were added automatically. Fluorescence from fluo-4 (excitation 485 nm, emission 525 nm) was recorded at 1.44-s intervals using Softmax Pro 5.4 (Molecular Devices). Fluorescence was calibrated to [Ca^2+]i from: [Ca^2+]i=KDCa×(F−Fmin/Fmax−F) where, KDCa is the equilibrium dissociation constant of fluo-4 for Ca^2+ (345 nM), F is the recorded fluorescence, and Fmin and Fmax are the fluorescence values recorded after addition of triton-X-100 (0.1%, v/v) with either BAPTA (10 mM, Fmin) or CaCl2 (10 mM, Fmax). […] Fmax was determined for each well at the end of an experiment, and the average value was used for each column of 8 wells. Fmin was determined from parallel wells on each plate.
(§2) For measurements of [Ca^2+]i using an FDSS 7000 FLIPR (Hamamatsu), hBASMCs were seeded into 384-well plates (8000 cells per well) in 20 μL of SMGM-2 containing 5% serum. […] The exact composition of this ‘no-wash’ indicator kit is not disclosed by the manufacturer, but it contains fluo-4-AM and components that reduce background fluorescence. […]

[3] = system: bradykinin-evoked Ca^2+ signals in hBASMCs; experiment: Bradykinin-evoked Ca2+ signals in populations of fluo-4-loaded hBASMCs
Procedure: as §1, §2

[4] = system: histamine-evoked Ca^2+ signals in hBASMCs; experiment: Histamine-evoked Ca2+ signals in populations of fluo-4-loaded hBASMCs
Procedure: Two methods were used to measure [Ca^2+]i in populations of hBASMCs. For measurements using a FlexStation III plate-reader (Molecular Devices, Sunnyvale, CA, USA), hBASMCs were seeded into 96-well plates (10^4 cells per well). After about 4 days, when the cells were confluent, the medium was replaced with SMGM-2 without serum or growth factor supplements, and the cells were used after a further 24 h. This period in serum-free medium increased by about 2-fold the amplitude of the increases in [Ca^2+]i evoked by histamine (results not shown). Cells were washed with HEPES-buffered saline (HBS: 135 mM NaCl, 5.9 mM KCl, 1.2 mM MgCl2, 1.5 mM CaCl2, 11.6 mM HEPES, 11.5 mM D-glucose, pH 7.3), and loaded with fluo-4 by incubation with fluo-4-AM (2 μM) in HBS (100 μL per well) containing pluronic F127 (0.02%, v/v) and probenecid (2.5 mM). After 1 h at 20 °C, the medium was replaced with HBS (100 μL per well) containing probenecid (2.5 mM). After a further incubation at 20 °C for 1 h, the medium was replaced with HBS (60–80 μL per well) or nominally Ca^2+-free HBS, and the cells were used immediately for experiments at 20 °C. In some experiments, BAPTA (2.5 mM) was added to HBS during the recording; this reduced the free [Ca^2+] of the HBS to ∼120 nM without affecting the pH. Drug additions (20 μL at 4 or 5 times the final concentration) were added automatically. Fluorescence from fluo-4 (excitation 485 nm, emission 525 nm) was recorded at 1.44-s intervals using Softmax Pro 5.4 (Molecular Devices). Fluorescence was calibrated to [Ca^2+]i from: [Ca^2+]i=KDCa×(F−Fmin/Fmax−F) where, KDCa is the equilibrium dissociation constant of fluo-4 for Ca^2+ (345 nM), F is the recorded fluorescence, and Fmin and Fmax are the fluorescence values recorded after addition of triton-X-100 (0.1%, v/v) with either BAPTA (10 mM, Fmin) or CaCl2 (10 mM, Fmax). Although treatment with triton-X-100 releases fluo-4 from cells into the medium, the fluo-4 fluorescence is captured with the same efficiency whether it is trapped within cells or dispersed within the small volume of the wells (unpublished observations). Fmax was determined for each well at the end of an experiment, and the average value was used for each column of 8 wells. Fmin was determined from parallel wells on each plate.
For measurements of [Ca^2+]i using an FDSS 7000 FLIPR (Hamamatsu), hBASMCs were seeded into 384-well plates (8000 cells per well) in 20 μL of SMGM-2 containing 5% serum. After 24 h, the medium was replaced with 15 μL of serum-free SMGM-2, and after a further 6 h the cells were loaded with Ca^2+ indicator by addition of FLIPR calcium 4 assay kit (Molecular Devices) supplemented with probenecid (2.5 mM). The exact composition of this ‘no-wash’ indicator kit is not disclosed by the manufacturer, but it contains fluo-4-AM and components that reduce background fluorescence. The manufacture’s stock solution was diluted 10-fold into HBSS containing BSA (0.1%, w/v) and HEPES (20 mM); 5 μL of this solution was then added to each well (containing 15 μL of serum-free SMGM-2). After 2 h at 37 °C in humidified air containing 5% CO2, the plate was used for experiments at 20 °C. Most additions (5 μL) were prepared in HBSS supplemented with HEPES (20 mM) and BSA (0.1%, w/v). For more prolonged incubations, drugs were diluted in the initial loading medium (to avoid changes in dye-loading during the ‘no wash’ protocol). Fluorescence signals (excitation at 480 nm, emission at 540 nm) were calibrated to [Ca^2+]i after measurement of Fmin and Fmax uniquely for each well, using a KDCa = 345 nM.
All concentration-effect relationships were determined by addition of different drug concentrations to individual wells in the same multi-well plate, rather than by sequential additions to the same well. […]

For Pertussis toxin [PTX], the “effect of pre-treatment on maximal amplitude of and sensitivity of the Ca2+ signals evoked by LPA” value [1] was “significantly reduced”, the “effect of pre-treatment on maximal amplitude of and sensitivity of the Ca2+ signals evoked by carbachol” value [2] was “significantly reduced” and the “effect of pre-treatment on the Ca2+ signals evoked by bradykinin” value [3] was “had no effect”. For the same substance, the “effect of pre-treatment on the Ca2+ signals evoked by histamine” value [4] was “had no effect”.

— article PMC5893132, “Selective inhibition of histamine-evoked Ca^2+ signals by compartmentalized cAMP in human bronchial airway smooth muscle cells” (Cell Calcium, 2018)
